Measured values as given in US8952024B2, “Herbicidal pyrimidone derivatives” (E I du Pont de Nemours and Company, priority 2009, dated 2015).

Columns and labels:
Format in all cases: in vivo
[1] = system: Russian thistle (Salsola iberica); experiment: Test F combination of compound 2 with bromoxynil, postemergence; settings: 15 days, mean of three replicates, scale 0 to 100
Description: Test F evaluated the effect of combining compound 2 with bromoxynil. The test species for this experiment was Russian thistle (Salsola iberica), which was prepared by sowing seeds into a blend of loam soil and sand. Test chemicals were formulated in a non-phytotoxic solvent mixture that included a surfactant and applied postemergence to plants ranging in height from 12 to 20 cm. […] Treatments consisted of Compound 2, bromoxynil, or their combination, using a spray volume of 457 L/ha. Each treatment was replicated three times. Treated plants and untreated controls were maintained in a greenhouse for 15 days, after which time all plants were visually evaluated and compared to the untreated controls. […] Colby's Equation was used to determine the herbicidal effects expected from the mixtures. Colby's Equation (Colby, S.

rice (Oryza sativa) = experiment: Test B flooded paddy test; settings: for Plant response rating, Flood, Rice: 250 g ai/ha, flooded paddy test, visual rating on 0 to 100 scale (0 no effect, 100 complete control) after 13 to 15 days; for Plant response rating, Rice: Flood (flooded paddy test), 13 to 15 days
Procedure, shortened: (§1)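 Flooded-pot test: water raised to 3 cm above soil when treating, compound put in the water, level unchanged thereafter. Plants were at 2 leaves. Readout after 13 to 15 days, visual, relative to controls; 0 signifies no effect and 100 complete control.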

[2] = system: ducksalad (Heteranthera limosa); experiment: Test B flooded paddy test; settings: for Plant response rating, Flood, Ducksalad: 250 g ai/ha, flooded paddy test, visual rating on 0 to 100 scale (0 no effect, 100 complete control) after 13 to 15 days; for Plant response rating, Ducksalad: Flood (flooded paddy test), 13 to 15 days
Procedure, shortened: as §1

[3] = system: umbrella sedge (Cyperus difformis); experiment: Test B flooded paddy test; settings: for Plant response rating, Flood, Sedge, Umbrella: 250 g ai/ha, flooded paddy test, visual rating on 0 to 100 scale (0 no effect, 100 complete control) after 13 to 15 days; for Plant response rating, Sedge, Umbrella: Flood (flooded paddy test), 13 to 15 days
Procedure, shortened: as §1

[4] = system: barnyardgrass (Echinochloa crus-galli); experiment: Test B flooded paddy test; settings: for Plant response rating, Flood, Barnyardgrass: 250 g ai/ha, flooded paddy test, visual rating on 0 to 100 scale (0 no effect, 100 complete control) after 13 to 15 days; for Plant response rating, Barnyardgrass: Flood (flooded paddy test), 13 to 15 days
Procedure, shortened: as §1

[5] = system: morningglory (Ipomoea spp.); experiment: Test A pre-/postemergence plant response; settings: for Morningglory plant response rating: visual injury, 0 to 100 scale (0 no effect, 100 complete control), approx. ten days
Procedure, shortened: (§2)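 Greenhouse trial, ~10 days. Soil (loam/sand) sprayed preemergence after seeding; emerged plants (1–2 leaf, 2–10 cm) sprayed postemergence in parallel. Response = visual injury vs untreated control, 0–100.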

corn (Zea mays) = experiment: Test A pre-/postemergence plant response; settings: for Corn plant response rating: visual injury, 0 to 100 scale (0 no effect, 100 complete control), approx. ten days
Procedure, shortened: as §2

[6] = system: barnyardgrass (Echinochloa crus-galli); experiment: Test A pre-/postemergence plant response; settings: for Barnyardgrass plant response rating: visual injury, 0 to 100 scale (0 no effect, 100 complete control), approx. ten days
Procedure, shortened: as §2

[7] = system: pigweed (Amaranthus retroflexus); experiment: Test A pre-/postemergence plant response; settings: for Pigweed plant response rating: visual injury, 0 to 100 scale (0 no effect, 100 complete control), approx. ten days
Procedure, shortened: as §2

[8] = system: velvetleaf (Abutilon theophrasti); experiment: Test A pre-/postemergence plant response; settings: for Velvetleaf plant response rating: visual injury, 0 to 100 scale (0 no effect, 100 complete control), approx. ten days
Procedure, shortened: as §2

[9] = system: wheat (Triticum aestivum); experiment: Test A pre-/postemergence plant response; settings: for Wheat plant response rating: visual injury, 0 to 100 scale (0 no effect, 100 complete control), approx. ten days
Procedure, shortened: as §2

[10] = system: large crabgrass (Digitaria sanguinalis); experiment: Test A pre-/postemergence plant response; settings: for Crabgrass, Large plant response rating: visual injury, 0 to 100 scale (0 no effect, 100 complete control), approx. ten days
Procedure, shortened: as §2

[11] = system: giant foxtail (Setaria faberii); experiment: Test A pre-/postemergence plant response; settings: for Foxtail, Giant plant response rating: visual injury, 0 to 100 scale (0 no effect, 100 complete control), approx. ten days
Procedure, shortened: as §2

[12] = 62 g ai/ha, scale of 0 to 100 where 0 is no effect and 100 is complete control
[13] = Postemergence, 125 g ai/ha, 0 to 100 scale where 0 is no effect and 100 is complete control
[14] = Preemergence, 125 g ai/ha, 0 to 100 scale, 0 = no effect, 100 = complete control
[15] = Preemergence, 500 g ai/ha, 0 to 100 scale, 0 = no effect, 100 = complete control
[16] = 125 g ai/ha, scale 0 to 100, 0 is no effect, 100 is complete control
[17] = Flood, 31 g ai/ha, scale 0 to 100 (0 no effect, 100 complete control)

SMILES: N#Cc1cc(Br)c(O)c(Br)c1 [bromoxynil, reference compound]
- Russian Thistle Obsd. (observed effect) ([1]; Bromoxynil 70 g a.i./ha alone): 8
- Russian Thistle Obsd. (observed effect) ([1]; Bromoxynil 140 g a.i./ha alone): 13

SMILES: CCCCn1c(-c2cccc(C)c2)ncc(C(=O)C2=C(O)C3CCC(C3)C2=O)c1=O (stereo not drawn) [Compound 232]
- Plant response rating, Flood, Rice (rice (Oryza sativa)): 0
- Plant response rating, Rice (rice (Oryza sativa); [12]): 0
- Plant response rating, Flood, Ducksalad [2]: 85
- Plant response rating, Ducksalad [2, 12]: 85
- Plant response rating, Flood, Sedge, Umbrella [3]: 80
- Plant response rating, Sedge, Umbrella [3, 12]: 80
- Plant response rating, Flood, Barnyardgrass [4]: 50
- Plant response rating, Barnyardgrass [4, 12]: 30
- Plant response rating, Morningglory [5, 13]: 100
- Morningglory plant response rating ([5]; Postemergence, 500 g ai/ha): 100
- Plant response rating, Morningglory [5, 14]: 0
- Plant response rating, Morningglory [5, 15]: 40
- Plant response rating, Corn (corn (Zea mays); [13]): 10
- Corn plant response rating (corn (Zea mays); Postemergence, 500 g ai/ha): 60
- Plant response rating, Corn (corn (Zea mays); [14]): 0
- Plant response rating, Corn (corn (Zea mays); [15]): 0
- Plant response rating, Barnyardgrass [6, 13]: 60
- Barnyardgrass plant response rating ([6]; Postemergence, 500 g ai/ha): 90
- Plant response rating, Barnyardgrass [6, 14]: 0
- Plant response rating, Barnyardgrass [6, 15]: 50
- Plant response rating, Pigweed [7, 13]: 70
- Pigweed plant response rating ([7]; Postemergence, 500 g ai/ha): 90
- Plant response rating, Pigweed [7, 14]: 0
- Plant response rating, Pigweed [7, 15]: 90
- Plant response rating, Velvetleaf [8, 13]: 70
- Velvetleaf plant response rating ([8]; Postemergence, 500 g ai/ha): 80
- Plant response rating, Velvetleaf [8, 14]: 0
- Plant response rating, Velvetleaf [8, 15]: 60
- Plant response rating, Wheat [9, 13]: 20
- Wheat plant response rating ([9]; Postemergence, 500 g ai/ha): 50
- Plant response rating, Wheat [9, 14]: 0
- Plant response rating, Wheat [9, 15]: 30
- Plant response rating, Crabgrass, Large [10, 13]: 20
- Crabgrass, Large plant response rating ([10]; Postemergence, 500 g ai/ha): 60
- Plant response rating, Crabgrass, Large [10, 14]: 10
- Plant response rating, Crabgrass, Large [10, 15]: 40
- Plant response rating, Foxtail, Giant [11, 13]: 60
- Foxtail, Giant plant response rating ([11]; Postemergence, 500 g ai/ha): 90
- Plant response rating, Foxtail, Giant [11, 14]: 0
- Plant response rating, Foxtail, Giant [11, 15]: 70

SMILES: Cc1ccccc1-n1c(-c2cccc(Br)c2)ncc(C(=O)C2=C(O)CCCC2=O)c1=O [Compound 209]
- Plant response rating, Flood, Rice (rice (Oryza sativa)): 20
- Plant response rating, Rice (rice (Oryza sativa); [12]): 0
- Plant response rating, Rice (rice (Oryza sativa); [16]): 10
- Rice plant response rating (rice (Oryza sativa); [17]): 0
- Plant response rating, Flood, Ducksalad [2]: 85
- Plant response rating, Ducksalad [2, 12]: 50
- Plant response rating, Ducksalad [2, 16]: 85
- Ducksalad plant response rating [2, 17]: 0
- Plant response rating, Flood, Sedge, Umbrella [3]: 80
- Plant response rating, Sedge, Umbrella [3, 12]: 50
- Plant response rating, Sedge, Umbrella [3, 16]: 70
- Sedge, Umbrella plant response rating [3, 17]: 0
- Plant response rating, Flood, Barnyardgrass [4]: 20
- Plant response rating, Barnyardgrass [4, 12]: 0
- Plant response rating, Barnyardgrass [4, 16]: 0
- Barnyardgrass plant response rating [4, 17]: 0
- Plant response rating, Morningglory [5, 13]: 30
- Morningglory plant response rating ([5]; Postemergence, 500 g ai/ha): 100
- Plant response rating, Morningglory [5, 14]: 0
- Plant response rating, Morningglory [5, 15]: 30
- Plant response rating, Corn (corn (Zea mays); [13]): 0
- Corn plant response rating (corn (Zea mays); Postemergence, 500 g ai/ha): 40
- Plant response rating, Corn (corn (Zea mays); [14]): 0
- Plant response rating, Corn (corn (Zea mays); [15]): 20
- Plant response rating, Barnyardgrass [6, 13]: 80
- Barnyardgrass plant response rating ([6]; Postemergence, 500 g ai/ha): 100
- Plant response rating, Barnyardgrass [6, 14]: 0
- Plant response rating, Barnyardgrass [6, 15]: 50
- Plant response rating, Pigweed [7, 13]: 60
- Pigweed plant response rating ([7]; Postemergence, 500 g ai/ha): 100
- Plant response rating, Pigweed [7, 14]: 0
- Plant response rating, Pigweed [7, 15]: 70
- Plant response rating, Velvetleaf [8, 13]: 100
- Velvetleaf plant response rating ([8]; Postemergence, 500 g ai/ha): 100
- Plant response rating, Velvetleaf [8, 14]: 60
- Plant response rating, Velvetleaf [8, 15]: 100
- Plant response rating, Wheat [9, 13]: 0
- Wheat plant response rating ([9]; Postemergence, 500 g ai/ha): 0
- Plant response rating, Wheat [9, 14]: 0
- Plant response rating, Wheat [9, 15]: 0
- Plant response rating, Crabgrass, Large [10, 13]: 50
- Crabgrass, Large plant response rating ([10]; Postemergence, 500 g ai/ha): 100
- Plant response rating, Crabgrass, Large [10, 14]: 20
- Plant response rating, Crabgrass, Large [10, 15]: 70
- Plant response rating, Foxtail, Giant [11, 13]: 60
- Foxtail, Giant plant response rating ([11]; Postemergence, 500 g ai/ha): 100
- Plant response rating, Foxtail, Giant [11, 14]: 10
- Plant response rating, Foxtail, Giant [11, 15]: 60
